Key:
[1] = test system: ryegrass, Italian; assay: Test A postemergence; format: in vivo, Lolium multiflorum; settings: postemergence, 10 days; for Plant response rating, Ryegrass, Italian: visual injury
In short: (§1)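 Greenhouse pot test, 10 days. Compound (non-phytotoxic solvent, surfactant) sprayed on soil at seeding or on seedlings at one- to two-leaf stage. Visual injury rated 0–100 against untreated plants.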

[2] = test system: corn; assay: Test A preemergence; format: in vivo, Zea mays
In short: as §1

[3] = test system: horseweed; assay: Test A postemergence; format: in vivo, Erigeron canadensis; settings: postemergence, 10 days; for Plant response rating, Horseweed: visual injury
In short: as §1

[4] = test system: blackgrass; assay: Test A postemergence; format: in vivo, Alopecurus myosuroides; settings: postemergence, 10 days; for Plant response rating, Blackgrass: visual injury
In short: as §1

[5] = test system: foxtail, giant; assay: Test A preemergence; format: in vivo, Setaria faberi
In short: as §1

[6] = test system: foxtail, giant; assay: Test A postemergence; format: in vivo, Setaria faberi; settings: postemergence, 10 days; for Plant response rating, Foxtail, Giant: visual injury
In short: as §1

[7] = test system: soybean; assay: Test A preemergence; format: in vivo, Glycine max
In short: as §1

[8] = test system: kochia; assay: Test A preemergence; format: in vivo, Bassia scoparia
In short: as §1

[9] = test system: corn; assay: Test A postemergence; format: in vivo, Zea mays; settings: postemergence, 10 days; for Plant response rating, Corn: visual injury
In short: as §1

[10] = test system: wheat; assay: Test A postemergence; format: in vivo, Triticum aestivum; settings: postemergence, 10 days; for Plant response rating, Wheat: visual injury
In short: as §1

[11] = test system: blackgrass; assay: Test A preemergence; format: in vivo, Alopecurus myosuroides
In short: as §1

[12] = test system: barnyardgrass; assay: Test B flooded paddy test; format: in vivo, Echinochloa crus-galli; settings: 250 g ai/ha, Flood, 13 days, 0 to 100 scale (0 no effect, 100 complete control)
In short: (§2)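 Flooded to 3 cm at treatment time, 2-leaf plants got the test compound applied straight into the paddy water. They then stayed under constant flood in a greenhouse for 13 days. Ratings used a 0 to 100 visual scale.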

[13] = test system: oat, wild; assay: Test A preemergence; format: in vivo, Avena fatua
In short: as §1

[14] = test system: kochia; assay: Test A postemergence; format: in vivo, Bassia scoparia; settings: postemergence, 10 days; for Plant response rating, Kochia: visual injury
In short: as §1

[15] = test system: goosegrass; assay: Test A postemergence; format: in vivo, Eleusine indica; settings: postemergence, 10 days; for Plant response rating, Goosegrass: visual injury
In short: as §1

[16] = test system: pigweed, palmer; assay: Test A postemergence; format: in vivo, Amaranthus palmeri; settings: postemergence, 10 days; for Plant response rating, Pigweed, Palmer: visual injury
In short: as §1

[17] = test system: ragweed; assay: Test A preemergence; format: in vivo, Ambrosia artemisiifolia
In short: as §1

[18] = test system: wheat; assay: Test A preemergence; format: in vivo, Triticum aestivum
In short: as §1

[19] = test system: sedge, umbrella; assay: Test B flooded paddy test; format: in vivo, Cyperus difformis; settings: 250 g ai/ha, Flood, 13 days, 0 to 100 scale (0 no effect, 100 complete control)
In short: as §2

[20] = test system: ryegrass, Italian; assay: Test A preemergence; format: in vivo, Lolium multiflorum
In short: as §1

[21] = test system: oat, wild; assay: Test A postemergence; format: in vivo, Avena fatua; settings: postemergence, 10 days; for Plant response rating, Oat, Wild: visual injury
In short: as §1

[22] = test system: rice; assay: Test B flooded paddy test; format: in vivo, Oryza sativa; settings: 250 g ai/ha, Flood, 13 days, 0 to 100 scale (0 no effect, 100 complete control)
In short: as §2

[23] = test system: ragweed; assay: Test A postemergence; format: in vivo, Ambrosia artemisiifolia; settings: postemergence, 10 days; for Plant response rating, Ragweed: visual injury
In short: as §1

[24] = test system: pigweed, palmer; assay: Test A preemergence; format: in vivo, Amaranthus palmeri
In short: as §1

[25] = test system: goosegrass; assay: Test A preemergence; format: in vivo, Eleusine indica
In short: as §1

[26] = test system: soybean; assay: Test A postemergence; format: in vivo, Glycine max; settings: postemergence, 10 days; for Plant response rating, Soybean: visual injury
In short: as §1

[27] = test system: ducksalad; assay: Test B flooded paddy test; format: in vivo, Heteranthera limosa; settings: 250 g ai/ha, Flood, 13 days, 0 to 100 scale (0 no effect, 100 complete control)
In short: as §2

[28] = 125 g ai/ha, 0 to 100 scale, 0 no effect, 100 complete control
[29] = 500 g ai/ha, 0 to 100 scale (0 no effect, 100 complete control)
[30] = 125 g ai/ha, visual injury after 10 days, 0 to 100 scale, 0 is no effect, 100 is complete control
[31] = 500 g ai/ha, 0 to 100 scale (0 no effect, 100 complete control), 10 days
[32] = 31 g ai/ha, 0 to 100 scale (0 no effect, 100 complete control)
[33] = 125 g ai/ha, 0 to 100 scale (0 no effect, 100 complete control)

COc1ccc(-n2cnc(C(C)(C)C)n2)cc1C(=O)N1C[C@H](C)Oc2c(Cl)cccc21 [Compound 83]
100: Plant response rating, Ryegrass, Italian [1, 29] | Plant response rating, Foxtail, Giant [5, 30] | Plant response rating, Foxtail, Giant [5, 31] | Plant response rating, Soybean [7, 31] | Plant response rating, Kochia [8, 31] | Kochia plant response rating [14, 28] | Plant response rating, Kochia [14, 29] | Plant response rating, Goosegrass [15, 29] | Pigweed, Palmer plant response rating [16, 28] | Plant response rating, Sedge, Umbrella [19] | Plant response rating, Ryegrass, Italian [20, 30] | Plant response rating, Ryegrass, Italian [20, 31] | Plant response rating, Ragweed [23, 29] | Plant response rating, Pigweed, Palmer [24, 30] | Plant response rating, Pigweed, Palmer [24, 31] | Plant response rating, Goosegrass [25, 30] | Plant response rating, Goosegrass [25, 31] | Soybean plant response rating [26, 28] | Plant response rating, Soybean [26, 29]
10: Blackgrass plant response rating [4, 28] | Wheat plant response rating [10, 28] | Plant response rating, Wheat [18, 30]
20: Plant response rating, Corn [2, 31] | Foxtail, Giant plant response rating [6, 28] | Oat, Wild plant response rating [21, 28]
50: Plant response rating, Soybean [7, 30] | Plant response rating, Corn [9, 29] | Plant response rating, Blackgrass [11, 31] | Plant response rating, Ragweed [17, 30]
60: Plant response rating, Blackgrass [4, 29]
30: Corn plant response rating [9, 28] | Plant response rating, Ducksalad [27]
90: Plant response rating, Foxtail, Giant [6, 29] | Plant response rating, Kochia [8, 30] | Plant response rating, Oat, Wild [13, 30] | Plant response rating, Oat, Wild [13, 31] | Plant response rating, Pigweed, Palmer [16, 29] | Plant response rating, Ragweed [17, 31] | Plant response rating, Wheat [18, 31]
70: Goosegrass plant response rating [15, 28] | Plant response rating, Oat, Wild [21, 29] | Ragweed plant response rating [23, 28]
0: Plant response rating, Corn [2, 30] | Plant response rating, Rice [22]
40: Ryegrass, Italian plant response rating [1, 28] | Horseweed plant response rating [3, 28] | Plant response rating, Horseweed [3, 29] | Plant response rating, Wheat [10, 29] | Plant response rating, Blackgrass [11, 30] | Plant response rating, Barnyardgrass [12]

Cc1ccc(-n2cnc(Br)n2)cc1C(=O)N1C[C@H](C)Oc2c(Cl)cccc21 [Compound 62]
0: Ryegrass, Italian plant response rating [1, 32] | Plant response rating, Corn ([2]; 31 g ai/ha, 0 to 100 scale) | Plant response rating, Corn [2, 30] | Horseweed plant response rating [3, 32] | Plant response rating, Horseweed [3, 33] | Plant response rating, Soybean ([7]; 31 g ai/ha, 0 to 100 scale) | Plant response rating, Soybean [7, 30] | Plant response rating, Blackgrass ([11]; 31 g ai/ha, 0 to 100 scale) | Plant response rating, Barnyardgrass [12] | Plant response rating, Oat, Wild ([13]; 31 g ai/ha, 0 to 100 scale) | Plant response rating, Oat, Wild [13, 30] | Plant response rating, Ragweed ([17]; 31 g ai/ha, 0 to 100 scale) | Plant response rating, Wheat ([18]; 31 g ai/ha, 0 to 100 scale) | Plant response rating, Wheat [18, 30] | Plant response rating, Sedge, Umbrella [19] | Plant response rating, Ryegrass, Italian ([20]; 31 g ai/ha, 0 to 100 scale) | Oat, Wild plant response rating [21, 32] | Plant response rating, Rice [22] | Plant response rating, Ducksalad [27]
80: Plant response rating, Kochia [8, 30] | Kochia plant response rating [14, 32]
90: Plant response rating, Foxtail, Giant [5, 30] | Plant response rating, Foxtail, Giant [6, 33] | Plant response rating, Kochia [14, 33] | Plant response rating, Pigweed, Palmer [24, 30]
50: Plant response rating, Blackgrass [4, 33] | Plant response rating, Pigweed, Palmer [16, 33]
100: Plant response rating, Goosegrass [25, 30] | Soybean plant response rating [26, 32] | Plant response rating, Soybean [26, 33]
20: Plant response rating, Foxtail, Giant ([5]; 31 g ai/ha, 0 to 100 scale) | Foxtail, Giant plant response rating [6, 32] | Plant response rating, Goosegrass [15, 33] | Plant response rating, Ragweed [17, 30] | Plant response rating, Oat, Wild [21, 33] | Plant response rating, Ragweed [23, 33]
40: Plant response rating, Ryegrass, Italian [1, 33] | Blackgrass plant response rating [4, 32] | Plant response rating, Blackgrass [11, 30] | Pigweed, Palmer plant response rating [16, 32]
10: Plant response rating, Kochia ([8]; 31 g ai/ha, 0 to 100 scale) | Corn plant response rating [9, 32] | Plant response rating, Corn [9, 33] | Wheat plant response rating [10, 32] | Plant response rating, Wheat [10, 33] | Goosegrass plant response rating [15, 32] | Ragweed plant response rating [23, 32]
70: Plant response rating, Ryegrass, Italian [20, 30] | Plant response rating, Pigweed, Palmer ([24]; 31 g ai/ha, 0 to 100 scale) | Plant response rating, Goosegrass ([25]; 31 g ai/ha, 0 to 100 scale)

CCCCc1ncn(-c2cccc(C(=O)N3C[C@H](C)Oc4c(C)cccc43)c2)n1 [Compound 86]
80: Plant response rating, Oat, Wild [13, 31]
0: Plant response rating, Corn [2, 30] | Horseweed plant response rating [3, 28] | Plant response rating, Horseweed [3, 29] | Blackgrass plant response rating [4, 28] | Plant response rating, Foxtail, Giant [5, 30] | Plant response rating, Soybean [7, 30] | Plant response rating, Soybean [7, 31] | Corn plant response rating [9, 28] | Plant response rating, Blackgrass [11, 30] | Plant response rating, Barnyardgrass [12] | Plant response rating, Oat, Wild [13, 30] | Plant response rating, Ragweed [17, 30] | Plant response rating, Ragweed [17, 31] | Plant response rating, Wheat [18, 30] | Oat, Wild plant response rating [21, 28] | Plant response rating, Rice [22]
50: Plant response rating, Ryegrass, Italian [1, 29] | Kochia plant response rating [14, 28] | Plant response rating, Goosegrass [15, 29] | Ragweed plant response rating [23, 28] | Plant response rating, Ragweed [23, 29] | Soybean plant response rating [26, 28]
100: Plant response rating, Ryegrass, Italian [20, 31] | Plant response rating, Soybean [26, 29]
20: Plant response rating, Corn [2, 31] | Plant response rating, Foxtail, Giant [6, 29] | Plant response rating, Wheat [10, 29] | Pigweed, Palmer plant response rating [16, 28] | Plant response rating, Pigweed, Palmer [24, 30]
60: Plant response rating, Kochia [8, 30] | Plant response rating, Goosegrass [25, 30]
65: Plant response rating, Ducksalad [27]
90: Plant response rating, Kochia [14, 29] | Plant response rating, Sedge, Umbrella [19] | Plant response rating, Pigweed, Palmer [24, 31] | Plant response rating, Goosegrass [25, 31]
10: Ryegrass, Italian plant response rating [1, 28] | Foxtail, Giant plant response rating [6, 28] | Plant response rating, Corn [9, 29] | Wheat plant response rating [10, 28] | Goosegrass plant response rating [15, 28] | Plant response rating, Wheat [18, 31] | Plant response rating, Oat, Wild [21, 29]
40: Plant response rating, Pigweed, Palmer [16, 29]
70: Plant response rating, Foxtail, Giant [5, 31] | Plant response rating, Kochia [8, 31] | Plant response rating, Ryegrass, Italian [20, 30]
30: Plant response rating, Blackgrass [4, 29] | Plant response rating, Blackgrass [11, 31]

Source: patent publication US20260262643A1, “HERBICIDAL BENZOXAZINES” (FMC CORPORATION, priority 2022, published 2026)
